Publication PMC12123460 (ACS Central Science, 2025)
Entries after “also recorded” stand apart in the source; their conditions may differ. Where two headings read alike, the source gives them in different places.

Experiments:
[1] = target: full length human μ opioid receptor (MOR) (Homo sapiens, UniProt P35372); assay: 3H-naltrexone radioligand competition binding, MOR membranes
[2] = target: T1, murine κ opioid receptor (KOR) (Mus musculus, UniProt P33534); assay: 3H-naltrexone radioligand competition binding, KOR membranes
murine KOR = murine KOR (Mus musculus, UniProt P33534); assay: Live cell GloSensor cAMP assay, antagonist mode, KOR-expressing HEK293T cells; conditions: for KOR Signaling: GloSensor cAMP, HEK293T, 10 μM forskolin, salvinorin A at EC80
human MOR = human MOR (Homo sapiens, UniProt P35372); assay: Live cell GloSensor cAMP assay, antagonist mode, MOR-expressing HEK293T cells; conditions: 10 μM forskolin, DAMGO at EC80
[3] = target: T1, murine κ opioid receptor (KOR); assay: biochemical
C56BL/6 mice [4] = system: C56BL/6 mice
C56BL/6 mice [5] = assay: Conditioned place aversion in morphine tolerant mice
C56BL/6 mice [6] = assay: Opioid withdrawal symptoms assay in morphine tolerant mice; conditions: 1 h after morphine 20 mg/kg, naloxone 10 mg/kg, #020_E1 30 mg/kg
[7] = read-out: MOR Ki binding affinity, 3H-naltrexone displacement, mean from three dose response experiments
[8] = read-out: MOR Ki estimate (†), calculated from the Cheng–Prusoff equation based on a single point at 33 μM ligand
[9] = read-out: KOR Ki binding affinity, 3H-naltrexone displacement, mean from three dose response experiments

3H-naltrexone [reference compound]
Kd ([1]; read-out: Kd of the radioligand in MOR membrane preparation, saturation experiments, nonspecific binding with 33 μM unlabeled naloxone): 1.97 nM
Kd ([2]; read-out: Kd of the radioligand in KOR membrane preparation, saturation experiments, nonspecific binding with 33 μM unlabeled naloxone): 2.71 nM

CCN1[C@@H]2C=C(C)[C@@](C)(C[C@H]2C(=O)OC)[C@@H]1C (racemic) [(±)-#001]
Ki [1, 7]: 7100 nM

CCN1CC(N2[C@@H]3C=C(c4ccccc4O)[C@@](C)(C[C@H]3C(=O)OC)[C@@H]2C)C1 (racemic) [(±)-#05]
Ki [1, 8]: 16000 nM
Ki [2, 9]: 8000 nM

CCCCC1=C[C@@H]2[C@H](C(=O)OC)C[C@@]1(C)[C@H](C)N2C[C@@H]1CCO1 (racemic) [(±)-#09]
Ki [1, 8]: 14000 nM
Ki ([2]; read-out: KOR Ki estimate (†), calculated from the Cheng–Prusoff equation based on a single point at 33 μM ligand): 12000 nM

COC(=O)C1CC2(C)C(c3ccco3)=CC1N(C(C)CN1CCCC1)C2C (racemic) [(±)-#11]
Ki [2, 9]: 400 nM

COC(=O)[C@@H]1C[C@]2(C)C(C)=C(C)[C@H]1N(Cc1cnn(CC(F)F)c1)[C@H]2C (racemic) [(±)-#56]
Ki [1, 7]: 8800 nM

COC(=O)[C@@H]1C[C@]2(C)C(c3cc(F)cc(F)c3)=C[C@H]1N(C1CN(CCO)C1)[C@H]2C (racemic) [(±)-#57]
Ki [1, 7]: 5000 nM
Ki [2, 9]: 1100 nM

COC(=O)C1CC2(C)C(c3cccc(O)c3)=CC1N(CCOc1c(C)cccc1C)C2C (stereo not drawn) [#017_E2]
KOR Signaling (murine KOR): Antagonist
MOR Signaling (human MOR): Antagonist

COC(=O)C1CC2(C)C(c3cccc(O)c3)=C(C)C1N(C)C2C (stereo not drawn) [#019_E2]
KOR Signaling (murine KOR): Inverse Agonist
MOR Signaling (human MOR): Antagonist

CCn1cc(CN2C3C=C(c4cccc(O)c4)C(C)(CC3C(=O)OC)C2C)cn1 (stereo not drawn) [#020_E2]
EC50 (murine KOR): 380 nM
KOR Signaling (murine KOR): Antagonist
MOR Signaling (human MOR): Antagonist
Ki [3]: 1.1 nM

CC1=C(c2cccc(O)c2)C2(C)CCC1N(CCc1ccccc1)C2C (stereo not drawn) [#030_E2]
KOR Signaling (murine KOR): Inverse Agonist
MOR Signaling (human MOR): Antagonist

CCn1cc(CN2C3C(C)=C(c4cccc(O)c4)C(C)(CC3C(=O)OC)C2C)cn1 (stereo not drawn) [#031_E2]
KOR Signaling (murine KOR): Inverse Agonist
MOR Signaling (human MOR): Antagonist

COC(=O)[C@@H]1C[C@]2(C)C(c3ccc(O)c(OC)c3)=C[C@H]1N(CCN)[C@H]2C [(+)-#33]
Ki [1, 7]: 980 nM
Ki [2, 9]: 1200 nM

CN1CC[C@]23c4c5ccc(O)c4O[C@H]2[C@@H](O)C=C[C@H]3[C@H]1C5 [morphine]
Tail flick latency (C56BL/6 mice [4]; 20 mg/kg i.p.): significantly increased tail flick latency

C=CCN1CC[C@]23c4c5ccc(O)c4O[C@H]2C(=O)CC[C@@]3(O)[C@H]1C5 [naloxone]
Time spent in the antagonist-paired chamber pre- vs post-conditioning (C56BL/6 mice [5]; morphine tolerant mice, withdrawal precipitated by the antagonist): marked decrease in time spent in the antagonist-paired chamber; also recorded: significantly less time in the chamber
CPA score (C56BL/6 mice [5]; test minus pretest time in drug-paired compartment): avoided the treatment compartment to a greater extent
Precipitated opioid withdrawal symptoms (jumps, wet-dog shakes, rearing, forepaw shakes) (C56BL/6 mice [6]): induced behaviors consistent with aversive withdrawal
i.p. dose required to return tail flick latency to baseline levels (C56BL/6 mice [4]; blocking of 20mg/kg morphine induced analgesia, dose response): 10 mg/kg
